Where a name gives a salt, the structure may show the parent alone.
Columns and labels:
[1] = target: T1, Recombinant human JAK1 (catalytic domain, amino acids 866-1154) (Homo sapiens, UniProt P23458); test: JAK1 inhibition assay; assay type: biochemical; conditions: read-out: JAK1 potency IC50
T1 construct: catalytic domain, amino acids 866-1154
Experimental: (§1) After 60 min at room temperature, reactions are stopped by adding 20 μL/well of detection mixture (1× detection buffer (Perkin Elmer, catalog number CR97-100), 0.5 nM Europium-anti-phosphotyrosine (PT66) (Perkin Elmer, catalog number AD0068/AD0069), 10 mM EDTA). […] Kinase activity is calculated by subtracting the ratio obtained in the presence of a positive control inhibitor (1 μM staurosporine) from the ratio obtained in the presence of vehicle. The ability of a test compound to inhibit this activity (or percentage inhibition) is determined as:
(§2) [formula] wherein Fluorescent ratio test compound=ratio RFU665/RFU615*1000 determined for sample with test compound present Fluorescent ratio control=ratio RFU665/RFU615*1000 determined for sample with positive control inhibitor Fluorescent ratio vehicle=ratio RFU665/RFU615*1000 determined in the presence of vehicle
(§3) Dose dilution series were prepared for the compounds enabling the testing of dose-response effects in the JAK1 assay and the calculation of the IC50 for the compound. Each compound is routinely tested at concentration of 20 μM followed by a 1/5 serial dilution, 10 points in a final concentration of 1% DMSO. […] The data are expressed as the average IC50 from the assays.

[2] = target: T2, Recombinant human JAK2 (catalytic domain, amino acids 808-1132) (Homo sapiens, UniProt O60674); test: JAK2 inhibition assay; assay type: biochemical; conditions: read-out: JAK2 potency IC50; further: 0.7 µM ATP
T2 construct: catalytic domain, amino acids 808-1132
Experimental: as §1, with “CR97-100) with” for “CR97-100),”, “AD0068/AD0069) and” for “AD0068/AD0069),”
as §2
as §3, with “are” for “were”, “compound” for “the compounds”, “JAK2” for “JAK1”

[3] = target: Recombinant human JAK3 catalytic domain (amino acids 781-1124) (Homo sapiens, UniProt P52333); test: JAK3 inhibition assay; assay type: biochemical
Experimental: After 45 min at 30° C., reactions are stopped by adding 25 μL/well of 150 mM phosphoric acid. […] Plates are washed 6 times with 300 μL per well of a 75 mM phosphoric acid solution and the bottom of the plates is sealed. […] Kinase activity is calculated by subtracting counts per min (cpm) obtained in the presence of a positive control inhibitor (10 μM staurosporine) from cpm obtained in the presence of vehicle. The ability of a test compound to inhibit this activity (or percentage inhibition) is determined as: […]
cpm test compound=cpm determined for sample with test compound present cpm control=cpm determined for sample with positive control inhibitor cpm vehicle=cpm determined in the presence of vehicle
Dose dilution series were prepared for the compounds enabling the testing of dose-response effects in the JAK3 assay and the calculation of the IC50 for each compound. Each compound is routinely tested at concentration of 20 μM followed by a 1/5 serial dilution, 10 points in a final concentration of 1% DMSO.

[4] = target: T3, Recombinant human TYK2 catalytic domain (amino acids 871-1187) (Homo sapiens, UniProt P29597); test: TYK2 radioactive assay polyGT substrate; assay type: biochemical; further: 0.1 µM ATP
T3 construct: catalytic domain (amino acids 871-1187)
T3 sequence (P29597 871-1187): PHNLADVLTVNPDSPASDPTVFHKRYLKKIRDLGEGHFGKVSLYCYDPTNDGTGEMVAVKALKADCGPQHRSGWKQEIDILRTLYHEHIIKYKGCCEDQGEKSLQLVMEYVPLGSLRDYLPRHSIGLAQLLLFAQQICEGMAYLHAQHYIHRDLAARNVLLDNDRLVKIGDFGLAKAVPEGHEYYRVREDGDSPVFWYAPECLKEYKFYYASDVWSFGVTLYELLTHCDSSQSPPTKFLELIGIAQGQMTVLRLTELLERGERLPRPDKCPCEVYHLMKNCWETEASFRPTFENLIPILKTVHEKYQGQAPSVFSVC
Procedure, shortened: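 Reaction at 30° C. for 120 min, ended with 150 mM phosphoric acid, washed, counted; percent inhibition scaled between vehicle and 10 μM staurosporine cpm.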

[5] = system: IFNα activation of STAT1 in PBMC; test: IFNα activation of STAT1 in PBMC; assay type: cell-based; conditions: Homo sapiens; IFNα activation of STAT1 in PBMC; average IC50; read-out: IFNα signaling inhibitory potency IC50
Procedure, shortened: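 Human PBMC, with red cells lysed by NH4Cl, were pre-treated with compound for 30 min at 37 °C and 5% CO2. They were then stimulated for 30 min with recombinant human IFNα at 5 ng/mL final.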

[6] = system: IL-12 activation of STAT4 in NK-92 cells; test: IL-12 activation of STAT4 in NK-92 cells using AphaLISA SureFire technology; assay type: cell-based; conditions: Homo sapiens, NK92; IL-12 activation of STAT4 in NK-92 cells, AlphaLISA SureFire; average IC50; read-out: IL12 pSTAT4 IC50
Procedure, shortened: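 NK-92 cells, starved of rhIL-2 overnight, were stimulated with rhIL-12 for 30 min at 37 °C with test compounds, then lysed. Phospho-STAT4 (Tyr693) was read by AlphaLISA SureFire. Percent inhibition versus the vehicle-plus-trigger signal was fitted by sigmoidal nonlinear regression to give IC50, averaged over experiments.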

Recombinant human JAK3 catalytic domain (amino acids 781-1124), sequence (P52333 781-1124): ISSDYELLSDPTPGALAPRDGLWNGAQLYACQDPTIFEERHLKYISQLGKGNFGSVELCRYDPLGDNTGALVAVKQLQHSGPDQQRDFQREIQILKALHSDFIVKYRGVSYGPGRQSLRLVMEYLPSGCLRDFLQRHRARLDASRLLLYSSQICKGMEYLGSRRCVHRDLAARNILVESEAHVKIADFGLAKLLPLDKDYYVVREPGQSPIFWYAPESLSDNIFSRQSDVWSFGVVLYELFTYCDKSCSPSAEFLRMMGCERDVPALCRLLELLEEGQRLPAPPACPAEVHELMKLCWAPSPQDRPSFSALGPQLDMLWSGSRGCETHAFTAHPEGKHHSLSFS
T2 sequence (O60674 808-1132): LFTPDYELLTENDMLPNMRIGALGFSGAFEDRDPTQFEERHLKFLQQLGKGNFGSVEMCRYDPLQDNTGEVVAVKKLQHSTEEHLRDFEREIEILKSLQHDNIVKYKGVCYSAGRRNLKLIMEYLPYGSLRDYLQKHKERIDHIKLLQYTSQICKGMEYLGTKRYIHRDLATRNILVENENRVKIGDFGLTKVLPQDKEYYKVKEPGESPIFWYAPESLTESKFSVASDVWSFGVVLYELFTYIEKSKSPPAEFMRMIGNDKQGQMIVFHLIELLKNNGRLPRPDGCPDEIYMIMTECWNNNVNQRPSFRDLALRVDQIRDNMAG
T1 sequence (P23458 866-1154): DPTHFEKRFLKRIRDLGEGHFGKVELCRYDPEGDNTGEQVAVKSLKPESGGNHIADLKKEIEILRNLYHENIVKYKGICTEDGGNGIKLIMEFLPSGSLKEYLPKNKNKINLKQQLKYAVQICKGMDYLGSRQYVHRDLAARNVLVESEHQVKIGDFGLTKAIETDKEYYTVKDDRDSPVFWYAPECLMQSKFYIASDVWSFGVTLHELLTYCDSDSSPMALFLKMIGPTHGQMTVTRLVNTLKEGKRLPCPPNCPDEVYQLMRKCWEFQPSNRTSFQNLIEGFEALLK

IC50 [1]	IC50 [2]	IC50 [3]	IC50 [4]	IC50 [6]	Structure (SMILES)	IC50 [5]
23 nM	3.35 nM	97.9 nM	3.07 nM	22 nM	Cn1cnc2c(Nc3ccc(S(C)(=O)=O)cn3)cc(OC(C3CC3)C(F)(F)F)nc21 (stereo not drawn) [Compound 22, 5-(1-cyclopropyl-2,2,2-trifluoro-ethoxy)-3-methyl-N-(5-methylsulfonyl-2-pyridyl)imidazo[4,5-b]pyridin-7-amine]	50 nM
71.5 nM	110 nM	1990 nM	11 nM	476 nM	Cc1cc(C#N)ncc1Oc1cc(Nc2ccc(C3(O)COC3)cc2)c2ncn(C)c2n1 [Compound 89, 5-[7-[4-(3-hydroxyoxetan-3-yl)anilino]-3-methylimidazo[4,5-b]pyridin-5-yl]oxy-4-methylpyridine-2-carbonitrile]	266 nM
57.1 nM	45.5 nM	908 nM	11 nM	87 nM	COc1ccc(Nc2cc(Oc3cnc(C#N)cc3C)nc3c2ncn3C)nc1 [Compound 84, 5-[7-[(5-methoxypyridin-2-yl)amino]-3-methylimidazo[4,5-b]pyridin-5-yl]oxy-4-methylpyridine-2-carbonitrile]	178 nM
19.9 nM	5.2 nM	392 nM	2.22 nM	83 nM	CCNC(c1ccc(Nc2cc(Oc3cnc(C#N)cc3C)nc3c2ncn3C)nc1)C(F)(F)F (stereo not drawn) [Compound 80, 5-[7-[[5-[1-(ethylamino)-2,2,2-trifluoroethyl]pyridin-2-yl]amino]-3-methylimidazo[4,5-b]pyridin-5-yl]oxy-4-methylpyridine-2-carbonitrile]	93 nM
103 nM	86.2 nM	1080 nM	13.6 nM	128 nM	COCCCS(=O)(=O)c1ccc(Nc2cc(Oc3cnc(C#N)cc3C)nc3c2ncn3C)cc1 [Compound 71, 5-[7-[4-(3-methoxypropylsulfonyl)anilino]-3-methyl-imidazo[4,5-b]pyridin-5-yl]oxy-4-methyl-pyridine-2-carbonitrile]	111 nM
67.6 nM	23.1 nM	503 nM	2.93 nM	129 nM	Cc1cc(C#N)ncc1Oc1cc(Nc2cc(NCCC(C)(C)O)ncn2)c2ncn(C)c2n1 [Compound 33, 5-{7-[6-(3-Hydroxy-3-methyl-butylamino)-pyrimidin-4-ylamino]-3-methyl-3H-imidazo[4,5-b]pyridin-5-yloxy}-4-methyl-pyridine-2-carbonitrile]	72 nM
81.7 nM	18.2 nM	409 nM	6.61 nM	769 nM	Cc1cc(C#N)ncc1Oc1cc(Nc2ccc(N3CCNCC3)cn2)c2ncn(C)c2n1 [Compound 180, 4-methyl-5-[3-methyl-7-[(5-piperazin-1-yl-2-pyridyl)amino]imidazo[4,5-b]pyridin-5-yl]oxy-pyridine-2-carbonitrile]	84 nM
151 nM	28.3 nM	1200 nM	5.41 nM	79 nM	COC1CN(C(=O)c2ccc(Nc3cc(Oc4cnc(C#N)cc4C)nc4c3ncn4C)nn2)C1 [Compound 116, 5-[7-[[6-(3-methoxyazetidine-1-carbonyl)pyridazin-3-yl]amino]-3-methyl-imidazo[4,5-b]pyridin-5-yl]oxy-4-methyl-pyridine-2-carbonitrile]	113 nM
40.5 nM	9.17 nM	417 nM	1.41 nM	50 nM	COC1CC(Nc2cc(Nc3cc(Oc4cnc(C#N)cc4C)nc4c3ncn4C)ncn2)C1 (stereo not drawn) [Compound 36, 5-{7-[6-(3-Methoxy-cyclobutylamino)-pyrimidin-4-ylamino]-3-methyl-3H-imidazo[4,5-b]pyridin-5-yloxy}-4-methyl-pyridine-2-carbonitrile]	79 nM
73.1 nM	38.8 nM	979 nM	8.81 nM	266 nM	Cc1cc(C#N)ncc1Oc1cc(Nc2ccc(C3CCOCC3)cn2)c2ncn(C)c2n1 [Compound 87, 4-methyl-5-[3-methyl-7-[[5-(oxan-4-yl)pyridin-2-yl]amino]imidazo[4,5-b]pyridin-5-yl]oxypyridine-2-carbonitrile]	158 nM
107 nM	29.1 nM	2110 nM	8.88 nM	968 nM	Cc1cc(C#N)ncc1Oc1cc(Nc2ccc(C(=O)N3CC(O)C3)nn2)c2ncn(C)c2n1 [Compound 115, 5-[7-[[6-(3-hydroxyazetidine-1-carbonyl)pyridazin-3-yl]amino]-3-methyl-imidazo[4,5-b]pyridin-5-yl]oxy-4-methyl-pyridine-2-carbonitrile]	144 nM
28.2 nM	6.31 nM	48.2 nM	3.04 nM	18.9 nM	CC(C)[C@@H](Nc1cc(Nc2cc(N)ncn2)c2ncn(C)c2n1)C(F)(F)F [Compound 98, N7-(6-aminopyrimidin-4-yl)-3-methyl-N5-[(1R)-2-methyl-1-(trifluoromethyl)propyl]imidazo[4,5-b]pyridine-5,7-diamine]	38 nM
150 nM	10.4 nM	386 nM	6.83 nM	224 nM	Cc1cc(C#N)ncc1Oc1cc(Nc2ccc(CN(C)C)cn2)c2ncn(C)c2n1 [Compound 81, 5-[7-[[5-[(dimethylamino)methyl]pyridin-2-yl]amino]-3-methylimidazo[4,5-b]pyridin-5-yl]oxy-4-methylpyridine-2-carbonitrile formate salt]	56 nM
69.4 nM	12.4 nM	69.7 nM	7.84 nM	80 nM	CC(C)C(Nc1cc(Nc2ccc(S(C)(=O)=O)cn2)c2ncn(C)c2n1)C(F)(F)F (stereo not drawn) [Compound 65, 3-methyl-N7-(5-methylsulfonyl-2-pyridiyl)-N5-[2-methyl-1-(trifluoromethyl)propyl]imidazo[4,5-b]pyridine-5,7-diamine]	96 nM
